Measured values taken from article PMC6491434 (Scientific Reports, 2019).

How the values were obtained:
ABCB4-WT [1] = target: T1, ABCB4-WT (Homo sapiens, UniProt P21439); parameters: method as in PMID 24806754; conditions: cited from earlier work
T1 construct: wild type (WT) ABCB4, isoform A (NM_000443.3), into pcDNA3 vector; expressed in transfected cells; host or cells: HEK-293

ABCB4-I541F [2] = target: T2, ABCB4-I541F (Homo sapiens, UniProt P21439, I541F); parameters: wild type (WT) ABCB4, isoform A (NM_000443.3), into pcDNA3 vector; expressed in transfected cells; host or cells: HEK-293 (immunoblot, PC secretion); HepG2 (immunofluorescence); method as in PMID 22184139, PMID 19185004; conditions: cited from earlier work
T2 sequence (P21439 1-1279 isoform P21439-2 I541F): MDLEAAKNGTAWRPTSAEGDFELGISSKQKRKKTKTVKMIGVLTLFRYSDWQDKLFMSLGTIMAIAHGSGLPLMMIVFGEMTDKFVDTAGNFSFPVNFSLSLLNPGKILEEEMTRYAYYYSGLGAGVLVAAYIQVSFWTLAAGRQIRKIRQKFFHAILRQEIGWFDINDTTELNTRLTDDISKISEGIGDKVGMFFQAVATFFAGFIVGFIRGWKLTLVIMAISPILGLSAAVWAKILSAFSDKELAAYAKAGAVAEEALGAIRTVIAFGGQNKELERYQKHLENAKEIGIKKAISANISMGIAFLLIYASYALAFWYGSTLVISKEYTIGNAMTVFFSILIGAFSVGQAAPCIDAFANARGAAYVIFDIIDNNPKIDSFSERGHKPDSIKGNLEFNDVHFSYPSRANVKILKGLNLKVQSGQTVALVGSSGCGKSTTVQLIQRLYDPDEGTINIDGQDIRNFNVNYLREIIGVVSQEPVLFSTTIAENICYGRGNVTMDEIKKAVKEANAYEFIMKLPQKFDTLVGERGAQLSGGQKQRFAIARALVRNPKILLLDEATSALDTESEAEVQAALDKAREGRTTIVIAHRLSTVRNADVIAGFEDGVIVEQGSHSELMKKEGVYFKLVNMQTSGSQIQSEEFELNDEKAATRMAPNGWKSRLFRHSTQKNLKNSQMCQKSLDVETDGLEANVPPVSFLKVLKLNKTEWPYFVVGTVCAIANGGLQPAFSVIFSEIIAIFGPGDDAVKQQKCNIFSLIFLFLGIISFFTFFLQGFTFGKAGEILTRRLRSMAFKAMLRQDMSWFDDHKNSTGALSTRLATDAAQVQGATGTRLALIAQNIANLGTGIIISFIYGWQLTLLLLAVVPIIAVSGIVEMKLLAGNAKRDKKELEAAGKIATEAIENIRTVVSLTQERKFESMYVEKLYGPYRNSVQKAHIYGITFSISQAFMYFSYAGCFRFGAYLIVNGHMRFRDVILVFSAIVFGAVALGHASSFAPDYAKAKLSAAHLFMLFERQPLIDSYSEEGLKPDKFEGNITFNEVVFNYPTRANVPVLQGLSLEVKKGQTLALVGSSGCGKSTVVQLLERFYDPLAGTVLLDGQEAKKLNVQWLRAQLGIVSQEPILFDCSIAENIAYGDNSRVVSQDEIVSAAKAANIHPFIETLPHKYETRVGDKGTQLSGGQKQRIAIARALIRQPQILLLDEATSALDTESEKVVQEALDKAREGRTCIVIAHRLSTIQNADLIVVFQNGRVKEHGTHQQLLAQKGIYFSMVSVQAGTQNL

CDK9/T = target: T3, CDK9/T (Homo sapiens, UniProt P50750); experiment: protein kinase catalytic activity assay, CDK9/cyclin T; assay type: biochemical; conditions: read-out: IC50 towards CDK9/T
T3 construct: made in house
T3 sequence (P50750 whole entry, species assumed): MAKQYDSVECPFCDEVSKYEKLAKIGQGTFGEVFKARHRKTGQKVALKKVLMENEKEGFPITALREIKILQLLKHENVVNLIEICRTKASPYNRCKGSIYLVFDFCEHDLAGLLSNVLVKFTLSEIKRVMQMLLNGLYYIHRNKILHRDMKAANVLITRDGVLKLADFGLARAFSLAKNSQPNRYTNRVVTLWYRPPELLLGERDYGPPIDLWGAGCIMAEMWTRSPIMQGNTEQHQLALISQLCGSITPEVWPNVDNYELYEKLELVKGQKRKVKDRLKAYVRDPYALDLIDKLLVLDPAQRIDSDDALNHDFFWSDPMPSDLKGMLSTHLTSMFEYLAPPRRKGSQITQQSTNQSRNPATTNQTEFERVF
T3 sequence (O60563 whole entry partner, species assumed): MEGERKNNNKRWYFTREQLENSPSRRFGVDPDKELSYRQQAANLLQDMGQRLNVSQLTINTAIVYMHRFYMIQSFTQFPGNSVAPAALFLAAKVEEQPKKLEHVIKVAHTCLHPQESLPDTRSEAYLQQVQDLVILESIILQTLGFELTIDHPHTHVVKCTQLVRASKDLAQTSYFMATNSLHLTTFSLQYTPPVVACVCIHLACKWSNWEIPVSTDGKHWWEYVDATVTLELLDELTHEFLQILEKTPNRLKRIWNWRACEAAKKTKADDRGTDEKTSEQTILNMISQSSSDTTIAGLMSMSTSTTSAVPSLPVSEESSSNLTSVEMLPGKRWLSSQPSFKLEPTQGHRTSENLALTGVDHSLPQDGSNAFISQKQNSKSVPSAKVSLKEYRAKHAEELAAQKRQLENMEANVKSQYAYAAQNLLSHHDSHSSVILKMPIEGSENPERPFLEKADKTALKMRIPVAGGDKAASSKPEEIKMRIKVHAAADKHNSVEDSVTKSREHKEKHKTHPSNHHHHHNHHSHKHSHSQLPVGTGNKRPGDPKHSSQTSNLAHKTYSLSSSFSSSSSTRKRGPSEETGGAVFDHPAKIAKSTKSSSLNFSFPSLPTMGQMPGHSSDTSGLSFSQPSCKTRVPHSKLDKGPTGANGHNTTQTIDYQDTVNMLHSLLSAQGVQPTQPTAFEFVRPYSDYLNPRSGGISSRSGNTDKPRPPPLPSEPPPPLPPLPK

ABCB4-WT [3] = target: T1, ABCB4-WT; experiment: ABCB4-mediated phosphatidylcholine secretion, HEK cells expressing ABCB4-WT; assay type: cell-based; conditions: from dose-response curves of Fig. 4C, read-out: IC50 (µM) (min-max) on the PC secretion activity of ABCB4-WT
Experimental: (§1) Cyclosporin A (CsA) was from Santa Cruz Biotechnologies (Dallas, TX). […] Each compound was solubilized in dimethylsulfoxide (DMSO) as 1000X concentrated stock solutions in order to treat cells with 5 µM to 100 µM final concentrations, using DMSO as control vehicle at the same dilution (0.1% DMSO for all conditions). The cells were treated 24 hours post-transfection with these drugs during 16 hours, except for the viability assays for which cells were treated during three days. After drug treatment, cells were used for immunoanalyses, cell viability assays or PC secretion assays.
(§2) HEK cells were seeded in 0.01% poly-L-lysine (Sigma) pre-coated 6-well plates of 10 cm² area per well (1.3 × 10^6 cells per well). After transient transfection of the empty vector (control), plasmids encoding ABCB4-WT or its variants, cells were incubated during 24 hours at 37 °C in serum-free medium supplemented with 0.5 mM sodium taurocholate (Sigma) and 0.02% fatty acid–free bovine serum albumin (Sigma). Then, the secreted PC was quantified from the collected media using a fluoro-enzymatic assay previously described. Each condition was analysed in triplicate, after background subtraction, and results were normalized to the expression levels of ABCB4 determined by immunoblots of the corresponding cell lysates.

ABCB4-I490T = target: T4, ABCB4-I490T (Homo sapiens, UniProt P21439, I490T); experiment: Canalicular localisation of ABCB4-I490T by indirect immunofluorescence in HepG2 cells; assay type: cell-based; conditions: 25 µM
T4 construct: wild type (WT) ABCB4, isoform A (NM_000443.3), into pcDNA3 vector; expressed in transfected cells; host or cells: HepG2

CDK5/p25 = target: T5, CDK5/p25 (Homo sapiens, UniProt Q00535); experiment: protein kinase catalytic activity assay, CDK5/p25; assay type: biochemical; conditions: read-out: IC50 towards CDK5/p25
T5 construct: made in house
T5 sequence (Q00535 whole entry, species assumed): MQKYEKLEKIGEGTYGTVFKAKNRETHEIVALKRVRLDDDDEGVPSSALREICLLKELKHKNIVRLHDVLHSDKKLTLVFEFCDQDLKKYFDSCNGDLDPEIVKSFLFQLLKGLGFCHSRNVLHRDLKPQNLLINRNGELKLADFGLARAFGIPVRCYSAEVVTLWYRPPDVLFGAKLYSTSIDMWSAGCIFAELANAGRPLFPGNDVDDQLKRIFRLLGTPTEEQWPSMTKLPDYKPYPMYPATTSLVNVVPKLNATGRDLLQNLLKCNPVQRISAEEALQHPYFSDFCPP
T5 sequence (Q15078 99-307 partner limits assumed, species assumed): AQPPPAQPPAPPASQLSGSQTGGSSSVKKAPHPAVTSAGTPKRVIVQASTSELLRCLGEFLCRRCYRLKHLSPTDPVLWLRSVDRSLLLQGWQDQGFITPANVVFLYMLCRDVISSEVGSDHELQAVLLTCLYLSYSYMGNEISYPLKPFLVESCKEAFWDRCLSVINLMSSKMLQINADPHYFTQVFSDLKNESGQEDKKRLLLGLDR

CDK2/A = target: T6, CDK2/A (Homo sapiens, UniProt P24941); experiment: protein kinase catalytic activity assay, CDK2/cyclin A; assay type: biochemical; conditions: read-out: IC50 towards CDK2/A
T6 construct: made in house

ABCB4-L556R = target: T7, ABCB4-L556R (Homo sapiens, UniProt P21439, L556R); experiment: Canalicular localisation of ABCB4-L556R by indirect immunofluorescence in HepG2 cells; assay type: cell-based; conditions: 25 µM
T7 construct: wild type (WT) ABCB4, isoform A (NM_000443.3), into pcDNA3 vector; expressed in transfected cells; host or cells: HepG2
T7 sequence (P21439 1-1279 isoform P21439-2 L556R): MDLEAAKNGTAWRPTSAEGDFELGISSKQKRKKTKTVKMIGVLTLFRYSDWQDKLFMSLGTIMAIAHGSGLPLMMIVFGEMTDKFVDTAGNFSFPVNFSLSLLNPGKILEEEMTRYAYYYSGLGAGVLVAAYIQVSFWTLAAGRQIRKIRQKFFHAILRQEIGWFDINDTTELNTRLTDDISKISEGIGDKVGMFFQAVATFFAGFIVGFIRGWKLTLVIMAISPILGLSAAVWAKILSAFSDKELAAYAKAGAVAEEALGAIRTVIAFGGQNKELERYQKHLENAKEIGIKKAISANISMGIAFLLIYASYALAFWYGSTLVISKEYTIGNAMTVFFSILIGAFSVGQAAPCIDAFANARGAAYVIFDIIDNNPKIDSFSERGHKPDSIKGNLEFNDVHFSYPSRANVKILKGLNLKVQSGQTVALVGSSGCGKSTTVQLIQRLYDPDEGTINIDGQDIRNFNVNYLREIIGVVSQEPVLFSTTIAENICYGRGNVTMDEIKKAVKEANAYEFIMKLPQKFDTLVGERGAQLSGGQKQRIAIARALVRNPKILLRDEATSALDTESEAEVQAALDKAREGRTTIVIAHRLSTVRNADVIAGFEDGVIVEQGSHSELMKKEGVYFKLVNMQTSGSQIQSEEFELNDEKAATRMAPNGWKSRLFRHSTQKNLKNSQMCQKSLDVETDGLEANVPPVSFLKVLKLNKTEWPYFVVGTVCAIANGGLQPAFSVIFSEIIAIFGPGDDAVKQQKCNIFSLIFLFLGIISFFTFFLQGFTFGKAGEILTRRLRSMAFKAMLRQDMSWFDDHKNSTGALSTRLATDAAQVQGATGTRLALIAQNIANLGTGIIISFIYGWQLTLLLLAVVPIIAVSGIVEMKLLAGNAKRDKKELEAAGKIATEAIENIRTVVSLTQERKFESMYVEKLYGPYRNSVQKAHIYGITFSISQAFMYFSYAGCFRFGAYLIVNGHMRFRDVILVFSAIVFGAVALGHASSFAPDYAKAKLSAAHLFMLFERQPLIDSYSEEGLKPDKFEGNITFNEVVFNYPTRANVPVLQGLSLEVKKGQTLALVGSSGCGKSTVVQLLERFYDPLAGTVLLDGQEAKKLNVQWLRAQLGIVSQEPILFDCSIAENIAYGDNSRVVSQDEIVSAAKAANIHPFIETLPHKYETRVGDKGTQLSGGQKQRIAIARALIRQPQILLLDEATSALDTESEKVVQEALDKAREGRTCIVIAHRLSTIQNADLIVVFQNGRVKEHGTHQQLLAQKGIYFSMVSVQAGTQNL

ABCB4-I541F [4] = target: T2, ABCB4-I541F; experiment: Maturation of ABCB4-I541F by immunoblot in HEK cells; assay type: cell-based; parameters: wild type (WT) ABCB4, isoform A (NM_000443.3), into pcDNA3 vector; expressed in transfected cells; host or cells: HEK-293 (immunoblot, PC secretion); conditions: 100 µM, 16 hours
Experimental: For transient transfection of HEK cells, they were seeded at subconfluent levels in the adequate tissue culture wells at least six hours before transfection. Turbofect (Thermo Fisher scientific) was used at a ratio of reagent:DNA of 2:1 according to manufacturer’s instructions. For transient transfection of HepG2 cells, subconfluent cultures were seeded in the adequate culture wells 24 hours before transfection. Lipofectamine 3000 (Thermo Fisher Scientific) was used at a ratio of reagent:DNA of 1.5:1 according to manufacturer’s instructions. Cell treatments and processing for further analyses were performed at least 16 hours post-transfection.
as §1
Western blots and indirect immunofluorescence were performed as previously described[9],[50]. […] Signals were detected with ECL prime western blotting detection reagent (GE Healthcare, Velizy-Villacoublay, France) and quantified in the linear range of detection using ImageJ 1.50i software (U.S. National Institutes of Health, Bethesda, MD).

CK1 = experiment: protein kinase catalytic activity assay, CK1; assay type: biochemical; conditions: read-out: IC50 towards CK1
ABCB4-I541F [5] = target: T2, ABCB4-I541F; experiment: ABCB4-mediated phosphatidylcholine secretion, HEK cells expressing ABCB4-I541F; assay type: cell-based; parameters: wild type (WT) ABCB4, isoform A (NM_000443.3), into pcDNA3 vector; expressed in transfected cells; host or cells: HEK-293 (immunoblot, PC secretion); conditions: 25 µM, vehicle 7.1 ± 0.8%
Experimental: as §1, §2

[6] = Cell viability, MTT assay; conditions: human
Experimental: as §1
(§3) Cell viability was assessed by the conversion of MTT (3-[4,5-dimethylthiazol-2-yl]-2,5 diphenyl tetrazolium bromide) into formazan crystals by living cells, as described. In brief, HEK cells were seeded in 96-well plates in triplicate for each tested condition, including controls (no cells, no treatment, treatment with vehicle). […] These conditions were optimized in order to maintain the absorbance at 540 nm of the blanks below 0.1 OD unit (negative controls) and the absorbance at 540 nm for untreated cells between 1.0 and 1.3 OD units (positive controls). Then culture media were gently washed out, cells were lysed in 100 µL of pure DMSO and absorbance at 540 nm was measured using a multiplate cytofluorimeter SpectraFluor from Tecan (Männedorf, Switzerland). Cell viability was calculated for each triplicate after background subtraction and expressed as percentage of the mean for cells treated with vehicle only.

HEK cells = experiment: Cell viability, MTT assay; conditions: three days
Experimental: as §1, §3

Compound | IC50 (CDK9/T) [µM] | IC50 (CDK5/p25) [µM] | IC50 (CDK2/A) [µM] | maturation of ABCB4-I541F (expression of the mature form) (ABCB4-I541F [4]) | IC50 (CK1) [µM] | other results
Cyclosporin A [CsA] | – | – | – | – | – | effect on the PC secretion activity of ABCB4 (ABCB4-WT [1]): inhibits the PC secretion activity of ABCB4; rescue of maturation and canalicular localisation of ABCB4-I541F (ABCB4-I541F [2]): partially rescued
CC[C@@H](Nc1nc(NCc2cccc(F)c2)c2ncn(C3CCCC3)c2n1)C(=O)O [MRT2-235] | 7 | 8.3 | 5.9 | significantly increase the expression of a mature form of ABCB4-I541F | 7 | IC50 (ABCB4-WT [3]): 21 µM; relocalisation of ABCB4-I490T at bile canaliculi (ABCB4-I490T): partially relocalised at bile canaliculi; relocalisation of ABCB4-L556R at bile canaliculi (ABCB4-L556R): partially relocalised at bile canaliculi; PC secretion activity of ABCB4-I541F (% of ABCB4-WT activity) (ABCB4-I541F [5]): 19.0 ± 3.4%
CC[C@@H](Nc1nc(NCc2ccc(Cl)c(F)c2)c2ncn(C3CCCC3)c2n1)C(=O)O [MRT2-243] | 5 | 6.3 | 3 | significantly increase the expression of a mature form of ABCB4-I541F | 6.1 | IC50 (ABCB4-WT [3]): 17.6 µM; relocalisation of ABCB4-I490T at bile canaliculi (ABCB4-I490T): partially relocalised at bile canaliculi; relocalisation of ABCB4-L556R at bile canaliculi (ABCB4-L556R): partially relocalised at bile canaliculi; PC secretion activity of ABCB4-I541F (% of ABCB4-WT activity) (ABCB4-I541F [5]): 22.5 ± 6.2%
CC[C@@H](Nc1nc(NCc2ccc(F)c(F)c2)c2ncn(C3CCCC3)c2n1)C(=O)O [MRT2-241] | 8 | 17 | 5.1 | significantly increase the expression of a mature form of ABCB4-I541F | 11 | –
CC(C)n1cnc2c(NCc3ccccc3)nc(N[C@@H](CO)C(=O)O)nc21 [MRT2-164] | 17 | – | – | – | 28 | –
CC[C@@H](Nc1nc(NCc2ccccc2)c2ncn(C3CCCC3)c2n1)C(=O)O [MRT2-245] | 28 | 15 | 6.3 | significantly increase the expression of a mature form of ABCB4-I541F | 17 | –
CC[C@H](CO)Nc1nc(NCc2ccccc2)c2ncn(C(C)C)c2n1 [Roscovitine, (R)-roscovitine] | – | – | – | – | – | viability at 72 h, 25 µM [6]: < 60%; cell viability after treatment at 100 µM (HEK cells; 100 µM, HEK cells expressing ABCB4-WT): massive cell death; cytotoxicity (HEK cells; increasing concentrations, HEK cells): important dose-dependent cytotoxicity
CC[C@@H](Nc1nc(NCc2cccc(C(F)(F)F)c2)c2ncn(C3CCCC3)c2n1)C(=O)O [MRT2-239] | 20 | 11 | 8 | significantly increase the expression of a mature form of ABCB4-I541F | 4 | –
CC[C@@H](Nc1nc(NCc2ccccc2)c2ncn(C(C)C)c2n1)C(=O)O [M3, reference compound] | > 33 | – | – | – | > 33 | –
CC[C@@H](Nc1nc(NCc2cccc(Cl)c2)c2ncn(C3CCCC3)c2n1)C(=O)O [MRT2-237] | 9 | 7.7 | 3.4 | significantly increase the expression of a mature form of ABCB4-I541F | 3.33 | IC50 (ABCB4-WT [3]): 29.3 µM; relocalisation of ABCB4-I490T at bile canaliculi (ABCB4-I490T): partially relocalised at bile canaliculi; relocalisation of ABCB4-L556R at bile canaliculi (ABCB4-L556R): partially relocalised at bile canaliculi; PC secretion activity of ABCB4-I541F (% of ABCB4-WT activity) (ABCB4-I541F [5]): 13.0 ± 3.5%
CC[C@@H](Nc1nc(NCc2cccc(C(F)(F)F)c2)c2ncn(C(C)C)c2n1)C(=O)O [MRT2-249] | > 33 | 27 | 9 | significantly increase the expression of a mature form of ABCB4-I541F | 5 | –
CC(Nc1nc(NCc2ccccc2)c2ncn(C(C)C)c2n1)C(=O)O (stereo not drawn) [MRT2-163] | – | – | – | – | 20 | –
